Data reported in ChEMBL document CHEMBL5303304, “EUbOPEN Chemogenomics Library - IncuCyte” (2023).

Tests used:
Assay type in all cases: toxicity, cell-based
HEK-293T = assay: Incucyte cell viability with HEK293T; conditions: human, 10 µM, compound concentration 10 uM
Fibroblast = assay: Incucyte cell viability with human fibroblast; conditions: 10 µM, compound concentration 10 uM
U2OS = assay: Incucyte cell viability with U2OS; conditions: human, 10 µM, compound concentration 10 uM
Note: unitless GR value; below 1 slowed growth and below 0 cell loss.

Q: With `Cc1cccc(-c2nn(C(=S)Nc3ccccc3)cc2-c2ccnc3ccccc23)n1` as the compound, how does the “Growth Rate” value (HEK-293T; 0 h, replicate number 1) read?
A: 0.78

Q: What about the “Growth Rate” value (Fibroblast; 0 h, replicate number 2) of the same compound?
A: -1

Q: What about the “Growth Rate” value (Fibroblast; 6 h, replicate number 1) of the same compound?
A: 1

Q: What about the “Growth Rate” value (Fibroblast; 12 h, replicate number 1) of the same compound?
A: -1

Q: And the “Growth Rate” value (U2OS; 0 h, replicate number 2)?
A: -0.94

Q: What about the “Growth Rate” value (U2OS; 6 h, replicate number 1) of the same compound?
A: 0.88

Q: What about the “Growth Rate” value (U2OS; 6 h, replicate number 2) of the same compound?
A: 0.81

Q: What about the “Growth Rate” value (U2OS; 18 h, replicate number 2) of the same compound?
A: 0.98

Q: What about the “Growth Rate” value (U2OS; 24 h, replicate number 2) of the same compound?
A: 0.88

Q: `NC(=O)c1cc(-c2ccnc(NC3CCCCC3)c2)nc(N2CCNCC2)c1` was tested. Which “Growth Rate” value (HEK-293T; 0 h, replicate number 1) did it give?
A: -0.55

Q: And the “Growth Rate” value (HEK-293T; 0 h, replicate number 2)?
A: -0.65

Q: What about the “Growth Rate” value (HEK-293T; 12 h, replicate number 1) of the same compound?
A: 0.54

Q: And the “Growth Rate” value (HEK-293T; 12 h, replicate number 2)?
A: 0.31

Q: And the “Growth Rate” value (HEK-293T; 18 h, replicate number 1)?
A: 0.8

Q: And the “Growth Rate” value (HEK-293T; 18 h, replicate number 2)?
A: 0.26

Q: And the “Growth Rate” value (HEK-293T; 24 h, replicate number 2)?
A: 0.44

Q: And the “Growth Rate” value (Fibroblast; 0 h, replicate number 1)?
A: -0.81

Q: What about the “Growth Rate” value (Fibroblast; 0 h, replicate number 2) of the same compound?
A: 0.79

Q: What about the “Growth Rate” value (Fibroblast; 6 h, replicate number 1) of the same compound?
A: 0.63

Q: And the “Growth Rate” value (Fibroblast; 6 h, replicate number 2)?
A: -0.77

Q: And the “Growth Rate” value (Fibroblast; 12 h, replicate number 1)?
A: -1

Q: And the “Growth Rate” value (Fibroblast; 12 h, replicate number 2)?
A: 0.39

Q: And the “Growth Rate” value (Fibroblast; 18 h, replicate number 2)?
A: 0.65

Q: What about the “Growth Rate” value (Fibroblast; 24 h, replicate number 2) of the same compound?
A: 0.36

Q: What about the “Growth Rate” value (U2OS; 18 h, replicate number 1) of the same compound?
A: 0.84

Q: What about the “Growth Rate” value (U2OS; 18 h, replicate number 2) of the same compound?
A: 0.9

Q: And the “Growth Rate” value (U2OS; 24 h, replicate number 1)?
A: 0.61

Q: And the “Growth Rate” value (U2OS; 24 h, replicate number 2)?
A: 0.72

Q: Which “Growth Rate” value (HEK-293T; 0 h, replicate number 1) does the source give for `Clc1cccc(-n2nnnc2NCc2ccccc2Oc2ccccn2)c1Cl` here?
A: 0.73

Q: What about the “Growth Rate” value (HEK-293T; 0 h, replicate number 2) of the same compound?
A: 0.49

Q: What about the “Growth Rate” value (Fibroblast; 0 h, replicate number 1) of the same compound?
A: 0.89

Q: And the “Growth Rate” value (Fibroblast; 0 h, replicate number 2)?
A: 0.26

Q: What about the “Growth Rate” value (Fibroblast; 6 h, replicate number 2) of the same compound?
A: -0.47

Q: And the “Growth Rate” value (Fibroblast; 12 h, replicate number 2)?
A: 0.89

Q: What about the “Growth Rate” value (Fibroblast; 18 h, replicate number 1) of the same compound?
A: 0.74

Q: And the “Growth Rate” value (Fibroblast; 24 h, replicate number 1)?
A: 0

Q: And the “Growth Rate” value (U2OS; 0 h, replicate number 1)?
A: -0.04

Q: What about the “Growth Rate” value (U2OS; 0 h, replicate number 2) of the same compound?
A: 0.95

Q: What about the “Growth Rate” value (U2OS; 6 h, replicate number 2) of the same compound?
A: 0.99

Q: What about the “Growth Rate” value (U2OS; 12 h, replicate number 1) of the same compound?
A: 0.9

Q: What about the “Growth Rate” value (U2OS; 18 h, replicate number 2) of the same compound?
A: 0.96

Q: What does the source list for `CC(C)(O)C(=O)N1CCN(c2ccc(C(F)(F)F)c(C3=C(c4c[nH]c5ccccc45)C(=O)NC3=O)c2)CC1`?
A: Growth Rate (HEK-293T; 0 h, replicate number 1): 0.94; Growth Rate (HEK-293T; 6 h, replicate number 1): 0.81; Growth Rate (HEK-293T; 6 h, replicate number 2): 0.29; Growth Rate (HEK-293T; 12 h, replicate number 2): 0.57; Growth Rate (HEK-293T; 18 h, replicate number 1): 0.83; Growth Rate (HEK-293T; 18 h, replicate number 2): 0.49; Growth Rate (HEK-293T; 24 h, replicate number 1): 0.61; Growth Rate (HEK-293T; 24 h, replicate number 2): 0.42; Growth Rate (Fibroblast; 0 h, replicate number 2): -1; Growth Rate (Fibroblast; 6 h, replicate number 1): -0.74; Growth Rate (Fibroblast; 12 h, replicate number 1): -1; Growth Rate (Fibroblast; 18 h, replicate number 2): 0.73; Growth Rate (Fibroblast; 24 h, replicate number 2): 0.3; Growth Rate (U2OS; 0 h, replicate number 1): -0.61; Growth Rate (U2OS; 12 h, replicate number 1): 0.93; Growth Rate (U2OS; 18 h, replicate number 1): 0.9; Growth Rate (U2OS; 18 h, replicate number 2): 0.8; Growth Rate (U2OS; 24 h, replicate number 1): 0.76; Growth Rate (U2OS; 24 h, replicate number 2): 0.83

Q: With `O=C1NCCSc2c1sc1ccc(O)cc21` as the compound, how does the “Growth Rate” value (HEK-293T; 0 h, replicate number 1) read?
A: 0.04

Q: What about the “Growth Rate” value (HEK-293T; 0 h, replicate number 2) of the same compound?
A: -0.36

Q: What about the “Growth Rate” value (HEK-293T; 6 h, replicate number 1) of the same compound?
A: -0.48

Q: What about the “Growth Rate” value (HEK-293T; 6 h, replicate number 2) of the same compound?
A: -0.51

Q: What about the “Growth Rate” value (HEK-293T; 12 h, replicate number 1) of the same compound?
A: -0.4

Q: And the “Growth Rate” value (HEK-293T; 12 h, replicate number 2)?
A: -0.26

Q: What about the “Growth Rate” value (HEK-293T; 18 h, replicate number 1) of the same compound?
A: -0.14

Q: And the “Growth Rate” value (HEK-293T; 18 h, replicate number 2)?
A: -0.06

Q: And the “Growth Rate” value (HEK-293T; 24 h, replicate number 1)?
A: 0.15

Q: And the “Growth Rate” value (HEK-293T; 24 h, replicate number 2)?
A: 0.12

Q: And the “Growth Rate” value (Fibroblast; 6 h, replicate number 1)?
A: -0.69

Q: And the “Growth Rate” value (Fibroblast; 12 h, replicate number 1)?
A: -1

Q: What about the “Growth Rate” value (U2OS; 0 h, replicate number 1) of the same compound?
A: 0

Q: And the “Growth Rate” value (U2OS; 0 h, replicate number 2)?
A: -0.99

Q: And the “Growth Rate” value (U2OS; 12 h, replicate number 1)?
A: 0.56

Q: What about the “Growth Rate” value (U2OS; 12 h, replicate number 2) of the same compound?
A: 0.36

Q: And the “Growth Rate” value (U2OS; 18 h, replicate number 1)?
A: 0.33

Q: What about the “Growth Rate” value (U2OS; 18 h, replicate number 2) of the same compound?
A: 0.31

Q: And the “Growth Rate” value (U2OS; 24 h, replicate number 1)?
A: 0.37

Q: And the “Growth Rate” value (U2OS; 24 h, replicate number 2)?
A: 0.18

Q: With `NC(=O)c1ccc2[nH]c(-c3ccc(Oc4ccc(Cl)cc4)cc3)nc2c1` as the compound, how does the “Growth Rate” value (HEK-293T; 0 h, replicate number 1) read?
A: 0.58

Q: And the “Growth Rate” value (HEK-293T; 6 h, replicate number 1)?
A: 0.6

Q: And the “Growth Rate” value (HEK-293T; 6 h, replicate number 2)?
A: 0.12

Q: And the “Growth Rate” value (HEK-293T; 12 h, replicate number 2)?
A: 0.93

Q: And the “Growth Rate” value (HEK-293T; 24 h, replicate number 2)?
A: 0.98

Q: What about the “Growth Rate” value (Fibroblast; 0 h, replicate number 1) of the same compound?
A: 0.02

Q: What about the “Growth Rate” value (Fibroblast; 0 h, replicate number 2) of the same compound?
A: -0.68

Q: What about the “Growth Rate” value (Fibroblast; 6 h, replicate number 1) of the same compound?
A: -0.26

Q: What about the “Growth Rate” value (Fibroblast; 12 h, replicate number 1) of the same compound?
A: -1

Q: And the “Growth Rate” value (U2OS; 0 h, replicate number 2)?
A: -0.59

Q: What about the “Growth Rate” value (U2OS; 6 h, replicate number 1) of the same compound?
A: -0.28

Q: And the “Growth Rate” value (U2OS; 6 h, replicate number 2)?
A: 0.74

Q: What about the “Growth Rate” value (U2OS; 12 h, replicate number 1) of the same compound?
A: 0.47

Q: And the “Growth Rate” value (U2OS; 12 h, replicate number 2)?
A: 0.71

Q: And the “Growth Rate” value (U2OS; 18 h, replicate number 1)?
A: 0.72

Q: And the “Growth Rate” value (U2OS; 18 h, replicate number 2)?
A: 0.83

Q: And the “Growth Rate” value (U2OS; 24 h, replicate number 1)?
A: 0.75

Q: What about the “Growth Rate” value (U2OS; 24 h, replicate number 2) of the same compound?
A: 0.82

Q: What does the source list for `CC(C)CNc1nc(N2CCN(CC3CCCOC3)CC2)ncc1C(=O)NCc1ccccc1` (configuration not stated)?
A: Growth Rate (HEK-293T; 0 h, replicate number 1): 0.68; Growth Rate (HEK-293T; 6 h, replicate number 1): 0.81; Growth Rate (HEK-293T; 6 h, replicate number 2): 0.95; Growth Rate (Fibroblast; 0 h, replicate number 1): -0.99; Growth Rate (Fibroblast; 6 h, replicate number 2): -1; Growth Rate (Fibroblast; 12 h, replicate number 2): -0.95; Growth Rate (Fibroblast; 18 h, replicate number 1): -0.97; Growth Rate (Fibroblast; 18 h, replicate number 2): -0.81; Growth Rate (Fibroblast; 24 h, replicate number 1): -0.8; Growth Rate (Fibroblast; 24 h, replicate number 2): -0.64; Growth Rate (U2OS; 6 h, replicate number 1): 0.3; Growth Rate (U2OS; 6 h, replicate number 2): 0.72; Growth Rate (U2OS; 12 h, replicate number 1): 0.83; Growth Rate (U2OS; 12 h, replicate number 2): 0.63; Growth Rate (U2OS; 18 h, replicate number 1): 0.99; Growth Rate (U2OS; 18 h, replicate number 2): 0.76; Growth Rate (U2OS; 24 h, replicate number 2): 0.79

Q: How did the “Growth Rate” value (HEK-293T; 0 h, replicate number 1) turn out when `CCOc1ccccc1C(=O)NCC1(N2CCN(CC)CC2)CCCCC1` was run?
A: 0.98

Q: And the “Growth Rate” value (HEK-293T; 6 h, replicate number 1)?
A: 0.23

Q: What about the “Growth Rate” value (HEK-293T; 6 h, replicate number 2) of the same compound?
A: -0.02

Q: And the “Growth Rate” value (HEK-293T; 12 h, replicate number 1)?
A: -0.11

Q: And the “Growth Rate” value (HEK-293T; 12 h, replicate number 2)?
A: 0.31

Q: And the “Growth Rate” value (HEK-293T; 18 h, replicate number 1)?
A: 0.24

Q: What about the “Growth Rate” value (HEK-293T; 18 h, replicate number 2) of the same compound?
A: 0.44

Q: What about the “Growth Rate” value (HEK-293T; 24 h, replicate number 1) of the same compound?
A: 0.44

Q: And the “Growth Rate” value (HEK-293T; 24 h, replicate number 2)?
A: 0.46

Q: And the “Growth Rate” value (Fibroblast; 0 h, replicate number 1)?
A: -0.95

Q: What about the “Growth Rate” value (Fibroblast; 0 h, replicate number 2) of the same compound?
A: -0.98

Q: What about the “Growth Rate” value (Fibroblast; 6 h, replicate number 2) of the same compound?
A: -0.9

Q: And the “Growth Rate” value (Fibroblast; 12 h, replicate number 2)?
A: 0.93

Q: What about the “Growth Rate” value (Fibroblast; 18 h, replicate number 1) of the same compound?
A: -0.25

Q: What about the “Growth Rate” value (Fibroblast; 24 h, replicate number 1) of the same compound?
A: 0.45

Q: What about the “Growth Rate” value (Fibroblast; 24 h, replicate number 2) of the same compound?
A: 0.83

Q: And the “Growth Rate” value (U2OS; 0 h, replicate number 1)?
A: -0.19

Q: What about the “Growth Rate” value (U2OS; 0 h, replicate number 2) of the same compound?
A: -0.99

Q: What about the “Growth Rate” value (U2OS; 6 h, replicate number 2) of the same compound?
A: 0.56

Q: And the “Growth Rate” value (U2OS; 12 h, replicate number 2)?
A: 0.88

Q: And the “Growth Rate” value (U2OS; 18 h, replicate number 2)?
A: 0.86

Q: What about the “Growth Rate” value (U2OS; 24 h, replicate number 2) of the same compound?
A: 0.94
